Reference: patent US8881823B2, “Environmentally friendly low temperature breaker systems and related methods” (Halliburton Energy Services, Inc., priority 2011, dated 2014)
Like-named read-outs stand apart in the source and are kept apart here.

Key:
[1] = Calcite dissolving capacity of breaker systems; type: physicochemical; details: 2.5 g BARACARB 5 in 50 mL test fluid, one hour
Experimental: The calcite dissolving capacity of each breaker system was determined in the following manner. A known amount of a technical grade calcium carbonate (commercially available from Halliburton under the tradename “BARACARB 5”) was dried in an oven for 2 hours. […] The solution was subsequently filtered with a 1 micron fiber glass filter paper.

[2] = Miscibility and pH of breaker systems in fresh water; type: physicochemical; details: breaker system in fresh water, 150° F. for 16 hours
Experimental: Several chelating agents and acids (breaker systems) were tested for their calcium carbonate dissolving capacity and miscibility in fresh water. Tests of the breaker systems were performed by adding a known volume of breaker system to a volume of brine needed to fill 100 ml in a jar. The jars were then sealed and swirled to mix the components. Samples containing 5%, 10%, or 20% v/v of chelating agents and acids were prepared. The jars were then placed in a static oven at 150° F. for 16 hours. Afterwards, miscibility of the components was observed and the pH of each mixture was tabulated.

[3] = Initial and over time miscibility and pH in potassium formate brines; type: physicochemical; details: for After Static Aging: overnight 150° F.; for pH Final: static 16 hrs @ 150° F.
Experimental: Completion breaker solutions were to be tested at 5%, 10%, and 20% by volume concentrations in each of the brines. The initial miscibility and the miscibility after static aging overnight at 150° F. were observed. Also, the pH of the final mixes was measured. The different concentrations of the breaker solutions were prepared with fresh water and filtered through a 1.6 μm glass fiber filter prior to testing.
The tests were run by adding the appropriate volume of the test breaker (5%, 10%, or 20% by volume) to the volume of the test brine needed to total 100 ml in a 4 ounce jar, sealing it, and swirling to mix the components. Observation was noted of the compatibility of the components.

[4] = Biodegradability, OECD 301 D Closed Bottle Test
Text: The same protocol was used to test EDTA (“DISSOLVINE AM3-40” available from AkzoNobel Corporate) and sodium acetate.

[5] = Compatibility and dissolution ability in potassium formate brine; type: physicochemical
Experimental: In this Example, the compatibility and dissolution ability of various breaker systems with formate brine were evaluated. […] For each sample a 20% v/v breaker sample was prepared in three different concentrations of potassium formate brine (11 ppg, 12 ppg, and 13 ppg).
To determine the compatibility of each breaker with the potassium formate brine, each sample was checked for the formation of formate salts. This precipitation was indicative of an incompatibility of the breaker system with the formate brine. Samples in which precipitation was observed are noted with an asterisk (*).
The dissolution ability of the breaker systems was also tested in the various concentration of formate brine. […] The jars were then dried in an 90° F. oven for 16 hours. After the elapsed time, the amount of carbonate that remained was weighed and tabulated. The difference in weight represented the amount of carbonate that was dissolved by the breaker system and/or precipitated out as a result of being incompatible with the formate brine.

[6] = Chemical oxygen demand (COD) test; type: physicochemical
Text: Table 2 compares the biodegradability of GLDA and EDTA and summarizes chemical oxygen demand (COD) tests which indirectly measures the amount of organic compounds in water.

[7] = 5% by volume, potassium formate brine 11.0 lb/gal
[8] = 5% by volume, potassium formate brine 12.0 lb/gal
[9] = 5% by volume, potassium formate brine 13.0 lb/gal
[10] = 10% by volume, potassium formate brine 11.0 lb/gal
[11] = 10% by volume, potassium formate brine 12.0 lb/gal
[12] = 10% by volume, potassium formate brine 13.0 lb/gal
[13] = 15% (so in the source), potassium formate brine 13.0 lb/gal
[14] = 20% by volume, potassium formate brine 11.0 lb/gal
[15] = 20% by volume, potassium formate brine 12.0 lb/gal

## O=C(O)CN(CCOCCOCCN(CC(=O)O)CC(=O)O)CC(=O)O [EGTA]
[1]
  % Carbonate Complexed or Dissolved: 9.28%
  Final Weight of BARACARB 5, g: 2.32 g
[2]
  pH: 11

## N.N.O=C(O)CN(CCN(CC(=O)O)CC(=O)O)CC(=O)O [EDTA ammonium salt, reference compound]
[1]
  % Carbonate Complexed or Dissolved: 38.4%
  Final Weight of BARACARB 5, g: 1.54 g
[2]
  pH: 4.77
[3]; [7]
  Initial Observation: Clear, totally soluble
  After Static Aging: Clear, totally soluble †
  pH Final: 9.6
[3]; [8]
  Initial Observation: Clear, totally soluble
  After Static Aging: Clear, totally soluble †
  pH Final: 10.8
[3]; [9]
  Initial Observation: Clear, totally soluble
  After Static Aging: Clear, totally soluble †
  pH Final: 11.4
[3]; [10]
  Initial Observation: Clear, totally soluble
  After Static Aging: Clear, totally soluble †
  pH Final: 8.6
[3]; [11]
  Initial Observation: Clear, totally soluble
  After Static Aging: Clear, totally soluble †
  pH Final: 9.8
[3]; [12]
  Initial Observation: Clear, totally soluble
  After Static Aging: Clear, totally soluble †
  pH Final: 10.7
[3]; [13]
  Initial Observation: Clear, totally soluble
  After Static Aging: Clear, totally soluble †
  pH Final: 9.9
[3]; [14]
  Initial Observation: Clear, totally soluble
  After Static Aging: Clear, totally soluble †
  pH Final: 7.0
[3]; [15]
  Initial Observation: Clear, totally soluble
  After Static Aging: Clear, totally soluble †
  pH Final: 8.0

## CC(=O)[O-].[Na+] [sodium acetate]
[4]; OECD 301D protocol
  biodegradability (in words): readily biodegradable

## O=C(O)CN(CCO)CCN(CC(=O)O)CC(=O)O [HEDTA]
[4]
  biodegradability (in words): do not meet this standard

## Cl.NC(N)=O [Synthetic acid (HCl salt of urea), HCl salt of urea]
[2]
  pH: 0.88
[3]; [7]
  After Static Aging: Slight haze
  pH Final: 9.9
[3]; [8]
  Initial Observation: Clear, totally soluble
  After Static Aging: Very slight separation
  pH Final: 11.4
[3]; [9]
  After Static Aging: Hazy
  pH Final: 12.2
[3]; [10]
  pH Final: 7.0
[3]; [11]
  pH Final: 9.4
[3]; [12]
  pH Final: 11.0
[3]; [14]
  pH Final: 6.0
[3]; [15]
  pH Final: 7.0
[3]; 20% by volume, potassium formate brine 13.0 lb/gal
  pH Final: 7.5
[3]; tested concentrations, 11.0-13.0 lb/gal brines
  solubility / miscibility in the potassium formate brines: not soluble in the brines, but dispersed evenly

## O=C(O)CN(CCN(CC(=O)O)CC(=O)O)CC(=O)O [EDTA, reference compound]
[5]; 20% v/v breaker, 11, 12 and 13 ppg potassium formate, precipitation of formate salts = incompatible
  compatibility with the formate brine: only compatible with the formate brine at the lowest tested concentration
[5]; 20% v/v breaker, 11 ppg Potassium Formate
  % Dissolved or precipitated out: 92%
[5]; 20% v/v breaker, 11 ppg Potassium Formate, 2.5 g calcium carbonate, 16 hours, * = precipitation of formate salts
  Amount of carbonate remaining: 0.21 g
[5]; 20% v/v breaker, 12 ppg Potassium Formate
  % Dissolved or precipitated out: 89%
[5]; 20% v/v breaker, 12 ppg Potassium Formate, 2.5 g calcium carbonate, 16 hours, * = precipitation of formate salts
  Amount of carbonate remaining, g: 0.28* g
[5]; 20% v/v breaker, 13 ppg Potassium Formate
  % Dissolved or precipitated out: 56%
[5]; 20% v/v breaker, 13 ppg Potassium Formate, 2.5 g calcium carbonate, 16 hours, * = precipitation of formate salts
  Amount of carbonate remaining, g: 1.10* g
[6]
  COD: ~315 mg/g
[4]; OECD 301D protocol
  biodegradability (in words): do not meet this standard
[4]; Table 2
  Biodegradability: Difficult

## O=C([O-])CC(NC(CC(=O)[O-])C(=O)[O-])C(=O)[O-].[Na+].[Na+].[Na+].[Na+] (stereo not drawn) [Iminodisuccinate, sodium salt]
[1]
  % Carbonate Complexed or Dissolved: 5.2%
  Final Weight of BARACARB 5, g: 2.37 g
[2]
  pH: 11.3
